Two compounds from patent publication US12122750B2, “AT2R antagonists and uses thereof” (Eli Lilly and Company, priority 2022, dated 2024) can be followed below.

In test [1] the target is recombinant human angiotensin-II receptor subtype 2 (hAT2R) (Homo sapiens (Human), UniProt P50052). As to the kind of experiment: Competitive radioligand binding assay (SPA), hAT2R HEK293 membranes. The settings on record: [125I]-Tyr4-Angiotensin-II, read-out: AT2R Ki. Put shortly:
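SPA competition binding on membranes from HEK293 cells stably transfected with hAT2R (0.25 μg/well, with 0.1 mg/well PVT-WGA beads) in 50 mM Tris-HCl pH 7.5, 150 mM NaCl, 0.1% fatty-acid-free BSA. Ten-point four-fold dilution curves ran from 50 μM top final concentration. Bound radioactivity was counted (CPM) after 10 h at room temperature.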

Test [2] deals with AT2R (Rattus norvegicus (Rat), UniProt P35351). The test is described as follows: Inhibition of C21-induced increase in dermal blood flow (laser Doppler imaging). Type of test: in vivo, Sprague Dawley rats.
Sequence of AT2R (P35351 whole entry): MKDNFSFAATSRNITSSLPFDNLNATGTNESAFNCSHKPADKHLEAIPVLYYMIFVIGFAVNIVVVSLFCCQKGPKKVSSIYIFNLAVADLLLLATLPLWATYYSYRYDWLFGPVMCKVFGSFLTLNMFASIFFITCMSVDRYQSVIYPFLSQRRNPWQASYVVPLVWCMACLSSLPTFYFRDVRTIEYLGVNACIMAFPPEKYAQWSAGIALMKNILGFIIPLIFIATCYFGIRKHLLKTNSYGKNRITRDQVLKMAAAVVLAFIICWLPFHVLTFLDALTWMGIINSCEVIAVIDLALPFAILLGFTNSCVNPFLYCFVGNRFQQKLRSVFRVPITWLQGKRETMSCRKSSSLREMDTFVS

Sequence of recombinant human angiotensin-II receptor subtype 2 (hAT2R) (P50052 whole entry): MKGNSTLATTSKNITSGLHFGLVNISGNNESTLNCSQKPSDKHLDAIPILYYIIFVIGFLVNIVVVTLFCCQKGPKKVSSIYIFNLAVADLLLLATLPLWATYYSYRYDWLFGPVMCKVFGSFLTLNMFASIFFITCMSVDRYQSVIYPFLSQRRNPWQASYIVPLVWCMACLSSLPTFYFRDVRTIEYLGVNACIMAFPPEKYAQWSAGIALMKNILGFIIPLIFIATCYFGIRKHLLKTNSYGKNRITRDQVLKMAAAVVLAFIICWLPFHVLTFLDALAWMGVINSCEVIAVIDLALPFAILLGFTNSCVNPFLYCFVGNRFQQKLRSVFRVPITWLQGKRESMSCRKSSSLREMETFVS

As for `O=C(N1CCC(CC(=O)N(c2ccccc2)c2ccccc2)(C(=O)O)CC1)N1CCc2ccccc21` [Example 3, 1-(indoline-1-carbonyl)-4-[2-oxo-2-(N-phenylanilino)ethyl]piperidine-4-carboxylic acid], the Ki in test [1] was 5.36 nM. Also, the “mode of action at AT2R (inhibition of C21-induced dermal blood flow)” value in test [2] (AT2R agonist C21 intradermal) is listed as “acting as a antagonist”. The same compound yielded an inhibition at 0.3 mg/kg in test [2] (dose 0.3 mg/kg, C21-induced increase in dermal blood flow) of 49.6%. The same compound came in with an inhibition at 3 mg/kg in test [2] (dose 3 mg/kg, C21-induced increase in dermal blood flow) of 62.9%. Further, the inhibition at 10 mg/kg in test [2] (C21-induced increase in dermal blood flow) worked out at 74.3%; in test [2] (second, unlabelled column under % Inhibition) it was 95.6%.
Consider `CN(C(=O)N1CCC(CC(=O)N(c2ccccc2)C(C2CC2)C2CC2)(C(=O)O)CC1)c1ccc(F)cc1` [Example 18, 4-[2-[N-(dicyclopropylmethyl)anilino]-2-oxo-ethyl]-1-[(4-fluorophenyl)-methyl-carbamoyl]piperidine-4-carboxylic acid], for which the Ki in test [1] was 9.59 nM.

The Ki is a measure of affinity in units of concentration, obtained from inhibition or displacement. As a reminder, the inhibition is the relative decrease from the control value, in per cent.
